Experiments:
Experiment in all cases: relative viability (nuclei count vs DMSO), 5 days (fraction); higher = more cells survive
Quizartinib + Phenformin = compound: CC(C)(C)c1cc(NC(=O)Nc2ccc(-c3cn4c(n3)sc3cc(OCCN5CCOCC5)ccc34)cc2)no1 [Quizartinib] + N=C(N)NC(=N)NCCc1ccccc1 [Phenformin] (partner 250 µM)
Method in brief: (§1)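 Lung cancer cell lines in 1536-well plates were dosed by pin tool the day after seeding, either with one drug alone or with a fixed anchor-drug dose plus five library-drug doses (not always all listed) in √10 steps. After 5 days, cells were fixed and their nuclei stained in one step (final 0.05% Triton X-100, 1% formaldehyde, 1 ug/ml Hoechst), then counted on 4× images. Relative viability is the nuclei count in treated wells divided by that in vehicle wells. Values are medians of duplicate plates.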

YM155 + Luminespib = compound: COCC[n+]1c2c(n(Cc3cnccn3)c1C)C(=O)c1ccccc1C2=O [YM155] + CCNC(=O)c1noc(-c2cc(C(C)C)c(O)cc2O)c1-c1ccc(CN2CCOCC2)cc1 [Luminespib] (partner 0.01 µM)
Method in brief: as §1

YM155 + Alpelisib = compound: COCC[n+]1c2c(n(Cc3cnccn3)c1C)C(=O)c1ccccc1C2=O [YM155] + Cc1nc(NC(=O)N2CCC[C@H]2C(N)=O)sc1-c1ccnc(C(C)(C)C(F)(F)F)c1 [Alpelisib] (partner 2 µM)
Method in brief: as §1

Quizartinib + Navitoclax = compound: CC(C)(C)c1cc(NC(=O)Nc2ccc(-c3cn4c(n3)sc3cc(OCCN5CCOCC5)ccc34)cc2)no1 [Quizartinib] + CC1(C)CCC(c2ccc(Cl)cc2)=C(CN2CCN(c3ccc(C(=O)NS(=O)(=O)c4ccc(N[C@H](CCN5CCOCC5)CSc5ccccc5)c(S(=O)(=O)C(F)(F)F)c4)cc3)CC2)C1 [Navitoclax] (partner 0.5 µM)
Method in brief: as §1

NCI-H2126 was tested, and the relative viability (Quizartinib + Phenformin; first compound 0.001 µM) was 0.518, the relative viability (Quizartinib + Phenformin; first compound 0.003162 µM) was 0.58 and the relative viability (Quizartinib + Phenformin; first compound 0.01 µM) was 0.534. For the same cell line, the relative viability (Quizartinib + Phenformin; first compound 0.1 µM) was 0.576, the relative viability (YM155 + Luminespib; first compound 0.002 µM) was 0.804 and the relative viability (YM155 + Luminespib; first compound 0.006325 µM) was 0.969. For the same cell line, the relative viability (YM155 + Luminespib; first compound 0.02 µM) was 0.94, the relative viability (YM155 + Luminespib; first compound 0.06325 µM) was 0.927 and the relative viability (YM155 + Alpelisib; first compound 0.002 µM) was 0.754. The relative viability (YM155 + Alpelisib; first compound 0.006325 µM) was 0.76, the relative viability (YM155 + Alpelisib; first compound 0.02 µM) was 0.77 and the relative viability (YM155 + Alpelisib; first compound 0.06325 µM) was 0.802. It also gave a relative viability (Quizartinib + Navitoclax; first compound 0.001 µM) of 0.813, a relative viability (Quizartinib + Navitoclax; first compound 0.003162 µM) of 0.823 and a relative viability (Quizartinib + Navitoclax; first compound 0.01 µM) of 0.882. The relative viability (Quizartinib + Navitoclax; first compound 0.03162 µM) was 0.872 and the relative viability (Quizartinib + Navitoclax; first compound 0.1 µM) was 0.828.

For NCI-H1755, the relative viability (Quizartinib + Phenformin; first compound 0.001 µM) was 0.58, the relative viability (Quizartinib + Phenformin; first compound 0.003162 µM) was 0.665 and the relative viability (Quizartinib + Phenformin; first compound 0.01 µM) was 0.609. For the same cell line, the relative viability (Quizartinib + Phenformin; first compound 0.03162 µM) was 0.652, the relative viability (Quizartinib + Phenformin; first compound 0.1 µM) was 0.672 and the relative viability (YM155 + Luminespib; first compound 0.002 µM) was 0.519. For the same cell line, the relative viability (YM155 + Luminespib; first compound 0.006325 µM) was 0.445, the relative viability (YM155 + Luminespib; first compound 0.02 µM) was 0.473 and the relative viability (YM155 + Luminespib; first compound 0.06325 µM) was 0.583. For the same cell line, the relative viability (YM155 + Alpelisib; first compound 0.002 µM) was 0.892, the relative viability (YM155 + Alpelisib; first compound 0.006325 µM) was 0.926 and the relative viability (YM155 + Alpelisib; first compound 0.02 µM) was 0.973. For the same cell line, the relative viability (YM155 + Alpelisib; first compound 0.06325 µM) was 1.02, the relative viability (Quizartinib + Navitoclax; first compound 0.001 µM) was 0.925 and the relative viability (Quizartinib + Navitoclax; first compound 0.003162 µM) was 0.976. For the same cell line, the relative viability (Quizartinib + Navitoclax; first compound 0.01 µM) was 1.01, the relative viability (Quizartinib + Navitoclax; first compound 0.03162 µM) was 1 and the relative viability (Quizartinib + Navitoclax; first compound 0.1 µM) was 0.926.

Cell Line HCC-827 has a relative viability (Quizartinib + Phenformin; first compound 0.001 µM) of 0.372, a relative viability (Quizartinib + Phenformin; first compound 0.003162 µM) of 0.385 and a relative viability (Quizartinib + Phenformin; first compound 0.01 µM) of 0.44. It also gave a relative viability (Quizartinib + Phenformin; first compound 0.03162 µM) of 0.402, a relative viability (Quizartinib + Phenformin; first compound 0.1 µM) of 0.404 and a relative viability (YM155 + Luminespib; first compound 0.002 µM) of 0.662. The relative viability (YM155 + Luminespib; first compound 0.006325 µM) was 0.451, the relative viability (YM155 + Luminespib; first compound 0.02 µM) was 0.403 and the relative viability (YM155 + Luminespib; first compound 0.06325 µM) was 0.586. For the same cell line, the relative viability (YM155 + Alpelisib; first compound 0.002 µM) was 0.982, the relative viability (YM155 + Alpelisib; first compound 0.006325 µM) was 1.04 and the relative viability (YM155 + Alpelisib; first compound 0.02 µM) was 1.06. For the same cell line, the relative viability (YM155 + Alpelisib; first compound 0.06325 µM) was 0.993, the relative viability (Quizartinib + Navitoclax; first compound 0.001 µM) was 0.987 and the relative viability (Quizartinib + Navitoclax; first compound 0.003162 µM) was 1.03. For the same cell line, the relative viability (Quizartinib + Navitoclax; first compound 0.01 µM) was 1.05, the relative viability (Quizartinib + Navitoclax; first compound 0.03162 µM) was 0.957 and the relative viability (Quizartinib + Navitoclax; first compound 0.1 µM) was 1.13.

In the case of NCI-H838, the relative viability (Quizartinib + Phenformin; first compound 0.001 µM) is reported as 0.442, the relative viability (Quizartinib + Phenformin; first compound 0.003162 µM) is reported as 0.692 and the relative viability (Quizartinib + Phenformin; first compound 0.01 µM) is reported as 0.498. The relative viability (Quizartinib + Phenformin; first compound 0.03162 µM) was 0.607, the relative viability (Quizartinib + Phenformin; first compound 0.1 µM) was 0.329 and the relative viability (YM155 + Luminespib; first compound 0.002 µM) was 0.254. It also gave a relative viability (YM155 + Luminespib; first compound 0.006325 µM) of 0.429, a relative viability (YM155 + Luminespib; first compound 0.02 µM) of 0.234 and a relative viability (YM155 + Luminespib; first compound 0.06325 µM) of 0.158. It also gave a relative viability (YM155 + Alpelisib; first compound 0.002 µM) of 0.971, a relative viability (YM155 + Alpelisib; first compound 0.006325 µM) of 0.991 and a relative viability (YM155 + Alpelisib; first compound 0.02 µM) of 1.05. The relative viability (YM155 + Alpelisib; first compound 0.06325 µM) was 0.316, the relative viability (Quizartinib + Navitoclax; first compound 0.001 µM) was 1.09 and the relative viability (Quizartinib + Navitoclax; first compound 0.003162 µM) was 1.06. The relative viability (Quizartinib + Navitoclax; first compound 0.01 µM) was 1.08, the relative viability (Quizartinib + Navitoclax; first compound 0.03162 µM) was 1.06 and the relative viability (Quizartinib + Navitoclax; first compound 0.1 µM) was 0.815.

NCI-H3122 was tested, and the relative viability (Quizartinib + Phenformin; first compound 0.003162 µM) was 0.377, the relative viability (Quizartinib + Phenformin; first compound 0.01 µM) was 0.381 and the relative viability (Quizartinib + Phenformin; first compound 0.1 µM) was 0.359. It also gave a relative viability (YM155 + Luminespib; first compound 0.002 µM) of 0.0874, a relative viability (YM155 + Luminespib; first compound 0.006325 µM) of 0.123 and a relative viability (YM155 + Luminespib; first compound 0.02 µM) of 0.0877. It also gave a relative viability (YM155 + Luminespib; first compound 0.06325 µM) of 0.0824, a relative viability (YM155 + Alpelisib; first compound 0.002 µM) of 0.67 and a relative viability (YM155 + Alpelisib; first compound 0.006325 µM) of 0.665. It also gave a relative viability (YM155 + Alpelisib; first compound 0.02 µM) of 0.751, a relative viability (YM155 + Alpelisib; first compound 0.06325 µM) of 0.82 and a relative viability (Quizartinib + Navitoclax; first compound 0.001 µM) of 0.93. For the same cell line, the relative viability (Quizartinib + Navitoclax; first compound 0.003162 µM) was 0.981, the relative viability (Quizartinib + Navitoclax; first compound 0.01 µM) was 1.02 and the relative viability (Quizartinib + Navitoclax; first compound 0.03162 µM) was 1.03. It also gave a relative viability (Quizartinib + Navitoclax; first compound 0.1 µM) of 1.02.

From the supplement of paper PMC10307832
